The results in this text go back to PubChem BioAssay AID504745 (National Center for Advancing Translational Sciences (NCATS), 2011).

The term efflux ratio denotes the permeability from basolateral to apical divided by that in the opposite direction, in the common usage.

The data set concerns Caco-2 bidirectional permeability, efflux ratio, LC-MS/MS. In words: Inhibitors of N370S glucocerebrosidase as a Potential Chaperone Treatment of Gaucher Disease: Efflux Ratio Profiling. Conditions: stronger effect = lower value. From the text: Glucocerebrosidase (GC) catalyzes the hydrolysis of beta-glucocerebroside to glucose and ceramide in lysosomes. Mutations in the glucocerebrosidase gene result in Gaucher disease, an autosomal recessive lysosomal storage disorder. Many of the mutations encountered in patients with Gaucher disease are missense alterations that may cause misfolding, decreased stability and/or mistrafficking of this lysosomal protein. […] These inhibitors include iminosugar analogs and three non-iminosugar inhibitors identified from a previous HTS of 62,000 compounds with the wild type recombinant enzyme. After further testing a probe has been identified and was characterized though AMDE tests. This bioassays provides profiling data on Caco-2 cell permeability of leads compounds developed for the HPGD project. This in vitro model is often predictive of in vivo efflux of the compound by measuring the ratio of transport in and out the plasma membrane of the Caco2-cell line. NIH Chemical Genomics Center [NCGC] NIH Molecular Libraries Probe Production Centers Network [MLPCN] MLPCN Grant: MH086442-01 Assay Submitter (PI): Wei Zheng
1. […] The T0, LY and T90, LY plates are read by FlexStation 3 at excitation of 485 nm and emission of 535 nm to determine LY permeability. […]

On to `S=C(NCCCc1cnc[nH]1)NCCCN(Cc1ccc(Cl)c(Cl)c1)c1ccc(Br)cn1`, for which the efflux ratio is 9.9.
